Results: patent publication US9642922B2, “Caspase-triggered nano-aggregation probes and methods of use” (The Board of Trustees of the Leland Stanford Junior …, priority 2013, dated 2017)
Blank lines part the entries; values can stand above or below the molecule they belong to. Numbered stars: 1 amine (or outer) side, 2 acyl side, 3 side chain; on linkers, the order of the positions; unused ones are H or OH. Square brackets hold non-standard residues; d marks the D form. Peptide text beside a SMILES is read from it. * marks the point of attachment. DOTA = O=C(O)CN1CCN(CC(=O)O)CCN(CC(=O)*)CCN(CC(=O)O)CC1; X1 = O=C(C1CSC(c2nc3ccc(N[*:1])cc3s2)=N1)[*:2]; X2 = N#Cc1ccc2cc(OCCCN*)ccc2n1; SEt = CCS*

Columns and labels:
[1] = test system: STS-induced apoptotic HeLa cells; test: Flow cytometry of STS-induced apoptotic HeLa cells labeled with probes; format: cell-based, human; details: 2 μM probe, compared with C-SNAF
Protocol: Approximately 10^5 HeLa cells in 1 mL DMEM medium were seeded onto 12-well plates. […] For the inhibitor blocking experiment, the STS-treated cells were first incubated with the caspase inhibitor Z-VAD-fmk (50 μM, R&D Systems) for 30 min, and then 2 μM C-SNAF was added. All cells incubations were 24 h, followed by staining with FLICA (FAM) after trypsinization. After washing with PBS (1×) three times, the cell pellets were resuspended in 300 μL PBS and applied for flow cytometry analysis using the FITC and Cy5.5 channels. The cell number for each flow cytometry analysis was approximately 5000 to 10000, and the data was processed using FlowJo software.

[2] = mouse, in vivo, iv
apoptotic HeLa cells = test: Epifluorescence microscopy of apoptotic HeLa cells labeled with probes; format: cell-based, human; details: microscopy, 2 μM probe
Protocol: After removal of the medium, the cells were incubated with C-SNAF, L-ctrl, or D-ctrl at 2 μM for 24 h. Some cells were first incubated with caspase inhibitor (Z-VAD-fmk, 50 μM) for 30 min, followed by incubating with 2 μM C-SNAF for 24 h. The cells were carefully washed with PBS (1×) three times, and stained with Hoechst 33342 (2 μM) at 37° C. for 30 min. After rinses with PBS (1×) several times, the medium was replaced and the fluorescence images were acquired with DAPI and Cy5.5 filters. The images were processed using the standard CRi Nuance software, analyzed using Image J software package (NIH), and presented at the same intensity scale for comparison.
HeLa cells in #1.5 borosilicate 8-well chambered coverslips (Nunc) were either incubated with C-SNAF (2 μM) alone or co-incubated with DOX (1, 2, and 5 μM) and 2 μM C-SNAF, 2 μM C-SNAF together with caspase inhibitor (Z-VAD-fmk, 50 μM), or control probes D-ctrl and L-ctrl at 2 μM for 24 h. Then the medium was removed, the cells were carefully washed with PBS (1×) three times, and stained with nuclear binding probe Hoechst 33342 (2 μM) at 37° C. for 30 min. After several rinses with PBS (1×), the medium was replaced and the fluorescence images were acquired with DAPI and […] filters.

subcutaneous HeLa tumors = test: In vivo fluorescence imaging of DOX-treated HeLa tumor-bearing mice; set-up: species or system mouse
Protocol: C-SNAF or either of the control probes (5 nmol) was administered intravenously to tumor-bearing mice and whole animal fluorescence was longitudinally monitored using a Maestro fluorescence imager.
(§1) To establish tumors in 6-week-old female nu/nu mice, 2×10^6 HeLa cells suspended in 50 μL of a 50% v/v mixture of Matrigel in supplemented DMEM (10% FBS, 1% penstrep) were injected subcutaneously in the shoulders of the mouse. Tumors were grown until a single aspect was 0.7 to 0.9 cm (approximately 10-15 days), and then treatment consisting of 8 mg/kg DOX or saline was initiated. Treatments were administered intravenously once every 4 d for a total of three times. Total mouse body weight and tumor size (width and length by caliper) was measured every other day. Tumor volumes were calculated assuming ellipsoid shape with the formula (l×w^2)/2.
Two days following the final treatment, 5 nmol probe in saline was injected intravenously and fluorescence imaging began immediately on a Maestro hyperspectral fluorescent imaging system (PerkinElmer, Mass., USA) using a 635±25 nm excitation filter and a 675 nm long-pass emission filter, with images acquired from 670 to 900 nm. Tissue autofluorescence and Cy5.5 fluorescence were deconvolved, and tumor fluorescence intensity was quantified by region of interest measurement using Nuance v.3.0.1.2 software (Perkin Elmer, Mass., USA).

caspase-3 = target: T1, caspase-3 (Homo sapiens, UniProt P42574); test: HPLC assay of caspase-3-triggered macrocyclization of C-SNAF; format: biochemical; set-up: purchased Sigma; host or cells: E. coli; details: same conditions as C-SNAF; D-ctrl after 24 h
T1 sequence (P42574 29-175 limits assumed): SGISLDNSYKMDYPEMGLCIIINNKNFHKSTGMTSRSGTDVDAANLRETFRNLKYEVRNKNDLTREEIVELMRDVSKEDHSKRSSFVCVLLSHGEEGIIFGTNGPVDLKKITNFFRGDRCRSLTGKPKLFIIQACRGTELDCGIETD
T1 sequence (P42574 176-277 limits assumed): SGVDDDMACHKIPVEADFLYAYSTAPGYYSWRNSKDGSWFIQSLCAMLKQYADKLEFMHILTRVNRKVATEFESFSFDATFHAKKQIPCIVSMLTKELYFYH
Protocol: The progression of caspase-3-triggered macrocyclization of C-SNAF to form C-SNAF-cycl in solution was monitored using high-performance liquid chromatography (HPLC) following incubation of the probe (25 μM) with recombinant human caspase-3 (4.9×10^−[…]).
Caspase (human, recombinant from E. coli) assays were performed for caspase-3 (4.9×10^−3 U; 7.35×10^−4 mg, Sigma), −7 (18.3 U; 7.35×10^−4 mg, Calbiochem), and −9 (0.3 U; 7.35×10^−4 mg, Calbiochem). All caspase assays were conducted in caspase buffer with 50 mM HEPES, 100 mM NaCl, 1 mM EDTA, 10 mM TCEP, 10% glycerol, and 0.1% CHAPS at pH 7.4. Cathepsin B (human liver; 0.27 U; 7.35×10^−4 mg, Calbiochem) and Legumain (human, recombinant from mouse myeloma cell line; >250 pmol/min/μg; 7.35×10^−4 mg, R&D Systems) were conducted in reaction buffer with 50 mM sodium acetate, 50 mM NaCl, 0.5 mM EDTA and 10 mM TCEP at pH 5.5. C-SNAF was diluted in the respective enzyme reaction buffer (25 μM, 1 mL) and remained at room temperature for 10 min, to which was then added the respective enzymes. Reactions were performed at 37° C., and monitored by HPLC hourly. The percentage conversion of the reaction was calculated based on the percentage of peak area of C-SNAF-cycl in the HPLC trace at 675 nm UV detection, which indicated the efficacy of enzyme cleavage of C-SNAF.

apoptotic cells = test: Two-photon laser confocal microscopy of europium analogue in HeLa cells; format: cell-based, human; details: same conditions as probe 15 uptake
caspase-3/7 activity = test: CASPASE-GLO 3/7 assay in saline- and 3×DOX-treated tumor lysates; format: in vivo, mouse; details: 3×DOX 8 mg/kg i.v.
Protocol: HeLa tumor xenografted mice were treated with saline or 3×DOX (8 mg/Kg). After treatment, the mice were sacrificed, and the tumors were resected and lysed with RIPA buffer (1 g tissue/1 ml buffer). The solution was homogenized for 1 min on ice, three times. The lysed solution was kept on ice for another 30 min, and centrifuged at 14,000×g for 30 min at 4° C. The supernatant was collected, and the protein concentration was measured using Bradford assay with BSA as standard. The caspase-3/7 activity in the lysed solution was measured by CASPASE-GLO® 3/7 assay, and normalized to the protein concentration.

caspase-3 activity = test: Caspase-3 level in Dox-treated HeLa cells; format: cell-based, human; details: Dox 2 μM, 24 h
Protocol: HeLa cells were incubated with different concentrations of doxorubicin (0, 1, 2 and 5 μM) and the cell/Tryp-LE solution was centrifuge at 11,750×g for 5 min, the supernatant was removed and 1 mL/g Riba buffer (Sigma) was added. The cells were left for 15 min on ice and homogenized with a sonicator (Bronson Sonifier 150) and the suspension was analyzed for Caspase-3 activity with a CASPASE-GLO® kit from Promega.
PET tracer 1 was applied to detect caspase-3 in apoptotic cells in vitro. HeLa cells were incubated with doxorubicin (Dox) (2 μM) for 24 h to induce apoptosis. […] Both Dox-treated and non-treated cells were then incubated with 1 for 4 h.

HeLa tumor xenograft = test: Tumor size monitoring in HeLa xenograft chemotherapy model; format: in vivo, mouse; details: 3×DOX 8 mg/kg i.v.
Protocol: as §1

caspase-3 level = test: Caspase-3 level in DOX-treated HeLa tumors; format: in vivo, mouse; details: 0.2 mg DOX intratumoral, 4 days
Protocol: Mice were injected subcutaneously on the right shoulder with an estimated 1-2 million HeLa cells. The HeLa cells were allowed to establish a tumor xenograft and to grow to the size of 1 cm in diameter. A subset of the mice was treated with intratumoral injections of 0.2 mg (in 20 μL) doxorubicin. Four days later, the animals were killed, the tumors removed and quickly frozen using dry ice. The following day, tumors were cut into small pieces, weighted and 1 mL/g Riba buffer was added. They were kept on ice for 30 min and then homogenized with a sonicator (Bronson Sonifier 150). The lysed tumor solutions were centrifuged at 11,750×g for 15 min at 4° C. The supernatant was analyzed for caspase-3 activity using the CASPASE-GLO® kit (Promega) and for protein concentration using the standard BSA absorption assay.

- blood half-life [2]: 30 ± 16.8 min
SMILES: CC[N+]1=C(C=CC=CC=C2N(CCCCCC(=O)NCCCCC(NC(=O)C(CSC)NC(=O)C(CC(=O)O)NC(=O)C(NC(=O)C(CCC(=O)O)NC(=O)C(CC(=O)O)NC(C)=O)C(C)C)C(=O)Nc3ccc4nc(C5=NC(C(=O)NCCCOc6ccc7ncccc7c6)CS5)sc4c3)c3ccc4c(S(=O)(=O)O)cc(S(=O)(=O)O)cc4c3C2(C)C)C(C)(C)c2c1ccc1c(S(=O)(=O)O)cc(S(=O)(=O)[O-])cc21 [L-ctrl]
- fluorescent intensity of apoptotic cells incubated with control probes [1]: much lower fluorescent intensity
- fluorescence of apoptotic cells compared to C-SNAF (apoptotic HeLa cells): relatively weaker fluorescence
- correlation (r) of maximum tumor fluorescence with maximum tumor size change (subcutaneous HeLa tumors; 3×DOX-treated mice, 1 h after probe): no significant correlation
- average signal enhancement between DOX- and saline-treated tumors (subcutaneous HeLa tumors; 4 h after probe administration): 0.24%
- tumor fluorescence lower than that of C-SNAF (subcutaneous HeLa tumors; DOX-treated mice, 1 h): 18%
- products observed after incubation with caspase-3 (caspase-3): only the caspase-3-mediated DEVD-cleavage hydrolysis product

SMILES: CCSSCC(NC(=O)C(CC(=O)O)NC(=O)C(NC(=O)C(CCC(=O)O)NC(=O)C(CC(=O)O)NC(C)=O)C(C)C)C(=O)NC(CCCCNC(=O)CN1CCN(CC(=O)[O-])CCN(CC(=O)[O-])CCN(CC(=O)[O-])CC1)C(=O)Nc1ccc2nc(C3=NC(C(=O)NCCCOc4ccc5nc(C#N)ccc5c4)CS3)sc2c1.[Eu+3] (stereo not drawn) [1-Eu^3+ (16)] (Ac-DEVDC(SEt)K(DOTA)[X1]-X2; configuration not given here)
- fluorescent signal in apoptotic cells (apoptotic cells): strong fluorescent signal in apoptotic cells

SMILES: COc1cccc2c1C(=O)c1c(O)c3c(c(O)c1C2=O)C[C@@](O)(C(=O)CO)C[C@@H]3O[C@H]1C[C@H](N)[C@H](O)[C@H](C)O1 [DOX, doxorubicin]
- increase in caspase-3/7 activity in tumor lysates versus saline (caspase-3/7 activity): approximately 2 fold
- caspase-3 activity of lysates of treated versus non-treated cells (caspase-3 activity): 9.5 fold
- tumor growth rate relative to saline (HeLa tumor xenograft): significant decrease in tumor growth rates
- increase of caspase-3 level in treated tumors (caspase-3 level): 1.9 fold
